US20230040770A1, “HETEROCYCLIC COMPOUND AND USE THEREOF” (TAKEDA PHARMACEUTICAL COMPANY LIMITED, priority 2019, published 2023)

Target: T1, human orexin type 2 receptor (Homo sapiens, UniProt O43614)
T1 construct: expressed in transfected cells
T1 sequence (O43614 1-444): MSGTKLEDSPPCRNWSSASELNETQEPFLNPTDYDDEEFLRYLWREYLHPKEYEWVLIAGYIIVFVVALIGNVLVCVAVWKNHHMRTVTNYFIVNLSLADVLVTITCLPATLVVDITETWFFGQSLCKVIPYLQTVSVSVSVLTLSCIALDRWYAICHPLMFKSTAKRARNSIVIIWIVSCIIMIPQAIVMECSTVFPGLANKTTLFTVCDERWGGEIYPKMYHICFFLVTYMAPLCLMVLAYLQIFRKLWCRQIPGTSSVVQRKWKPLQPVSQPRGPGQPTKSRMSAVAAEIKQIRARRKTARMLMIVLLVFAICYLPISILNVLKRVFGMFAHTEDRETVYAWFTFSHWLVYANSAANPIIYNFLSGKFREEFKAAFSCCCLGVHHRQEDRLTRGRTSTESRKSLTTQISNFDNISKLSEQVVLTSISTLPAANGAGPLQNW
Experiment: Measurement of orexin type 2 receptor agonist activity (calcium indicator fluorescence, CHO cells forcibly expressing human OX2 receptor)
Format: cell-based
Details: compound at 3 μM; 0% = DMSO, 100% = orexin A (human) 10 nM
In short: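 CHO-dhfr cells stably expressing human OX2R, loaded with Fluo-4 AM (30 min 37 °C, then 30 min RT), then given test compound. Calcium fluorescence read by FDSS over ~2 min. Activity (%) scaled from DMSO (0%) to 10 nM final orexin A (100%).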

Row | Structure (SMILES) | OX2R agonist activity (3 μM, %) [%]
1 | CCS(=O)(=O)N[C@@H]1[C@H](Cc2cccc(-c3cccc(C(F)F)c3)c2F)N(C(=O)C(C)C)CC1(F)F [Example 507, N-[(2S,3R)-2-{[3′-(difluoromethyl)-2-fluoro[1,1′-biphenyl]-3-yl]methyl}-4,4-difluoro-1-(2-methylpropanoyl)pyrrolidin-3-yl]ethanesulfonamide] | 97
2 | CCS(=O)(=O)N[C@@H]1[C@H](Cc2cccc(-c3cccc(C(F)F)c3)c2F)N(C(=O)C2CC2)CC1(F)F [Example 508, N-[(2S,3R)-1-(cyclopropanecarbonyl)-2-{[3′-(difluoromethyl)-2-fluoro[1,1′-biphenyl]-3-yl]methyl}-4,4-difluoropyrrolidin-3-yl]ethanesulfonamide] | 96
3 | CCS(=O)(=O)N[C@@H]1[C@H](Cc2cccc(-c3cccc(C(F)F)c3)c2F)N(C(=O)C23CC(C2)C3)CC1(F)F [Example 509, N-[(2S,3R)-1-(bicyclo[1.1.1]pentane-1-carbonyl)-2-{[3′-(difluoromethyl)-2-fluoro[1,1′-biphenyl]-3-yl]methyl}-4,4-difluoropyrrolidin-3-yl]ethanesulfonamide] | 85
4 | CCS(=O)(=O)N[C@@H]1[C@H](Cc2cccc(-c3cccc(OC)c3)c2F)N(C(=O)C23CC(C2)C3)CC1(F)F [Example 510, N-{(2S,3R)-1-(bicyclo[1.1.1]pentane-1-carbonyl)-4,4-difluoro-2-[(2-fluoro-3′-methoxy[1,1′-biphenyl]-3-yl)methyl]pyrrolidin-3-yl}ethanesulfonamdie] | 97
5 | CCS(=O)(=O)N[C@@H]1[C@H](Cc2cccc(-c3cccc(OC)c3)c2F)N(C(=O)C(C)C)CC1(F)F [Example 511, N-[(2S,3R)-4,4-difluoro-2-[(2-fluoro-3′-methoxy[1,1′-biphenyl]-3-yl)methyl]-1-(2-methylpropanoyl)pyrrolidin-3-yl]ethanesulfonamide] | 98
6 | CCS(=O)(=O)N[C@@H]1[C@H](Cc2cccc(-c3cccc(OC)c3)c2F)N(C(=O)C2CC2)CC1(F)F [Example 512, N-{(2S,3R)-1-(cyclopropanecarbonyl)-4,4-difluoro-2-[(2-fluoro-3′-methoxy[1,1′-biphenyl]-3-yl)methyl]pyrrolidin-3-yl}ethanesulfonamide] | 95
7 | CCS(=O)(=O)N[C@@H]1[C@H](Cc2cccc(-c3cccc(OC)c3)c2F)N(C(=O)C2(O)CCC2)CC1(F)F [Example 513, N-[(2S,3R)-4,4-difluoro-2-[(2-fluoro-3′-methoxy[1,1′-biphenyl]-3-yl)methyl]-1-(1-hydroxycyclobutane-1-carbonyl)pyrrolidin-3-yl]ethanesulfonamide] | 97
8 | CCS(=O)(=O)N[C@H]1[C@@H](F)CN(C(=O)C2CC2)[C@H]1Cc1cccc(-c2cccc(C)c2)c1F [Example 514, N-{(2S,3R,4S)-1-(cyclopropanecarbonyl)-4-fluoro-2-[(2-fluoro-3′-methyl[1,1′-biphenyl]-3-yl)methyl]pyrrolidin-3-yl}ethanesulfonamide] | 95
9 | CCS(=O)(=O)N[C@H]1[C@@H](F)CN(C(=O)C2CC2)[C@H]1Cc1cccc(-c2cc(C)cc(F)c2)c1F [Example 515, N-{(2S,3R,4S)-1-(cyclopropanecarbonyl)-2-[(2,3′-difluoro-5′-methyl[1,1′-biphenyl]-3-yl)methyl]-4-fluoropyrrolidin-3-yl}ethanesulfonamide] | 98
10 | CCS(=O)(=O)N[C@H]1[C@@H](F)CN(C(=O)C2CC2)[C@H]1Cc1cccc(-c2cccc(Cl)c2)c1F [Example 516, N-[(2S,3R,4S)-2-[(3′-chloro-2-fluoro[1,1′-biphenyl]-3-yl)methyl]-1-(cyclopropanecarbonyl)-4-fluoropyrrolidin-3-yl]ethanesulfonamide] | 102
11 | CCS(=O)(=O)N[C@H]1[C@@H](F)CN(C(=O)C2CC2)[C@H]1Cc1cccc(-c2cc(F)cc(Cl)c2)c1F [Example 517, N-[(2S,3R,4S)-2-[(3′-chloro-2,5′-difluoro[1,1′-biphenyl]-3-yl)methyl]-1-(cyclopropanecarbonyl)-4-fluoropyrrolidin-3-yl]ethanesulfonamide] | 100
12 | CCS(=O)(=O)N[C@H]1[C@@H](F)CN(C(=O)C2CC2)[C@H]1Cc1cccc(-c2ccccc2F)c1F [Example 518, N-{(2S,3R,4S)-1-(cyclopropanecarbonyl)-2-[(2,2′-difluoro[1,1′-biphenyl]-3-yl)methyl]-4-fluoropyrrolidin-3-yl}ethanesulfonamide] | 98
13 | CCS(=O)(=O)N[C@H]1[C@@H](F)CN(C(=O)C2CC2)[C@H]1Cc1cccc(-c2cccc(C)c2F)c1F [Example 519, N-{(2S,3R,4S)-1-(cyclopropanecarbonyl)-2-[(2,2′-difluoro-3′-methyl[1,1′-biphenyl]-3-yl)methyl]-4-fluoropyrrolidin-3-yl}ethanesulfonamide] | 98
14 | CCS(=O)(=O)N[C@H]1[C@@H](F)CN(C(=O)C2CC2)[C@H]1Cc1cccc(-c2cccc(Cl)c2F)c1F [Example 520, N-[(2S,3R,4S)-2-[(3′-chloro-2,2′-difluoro[1,1′-biphenyl]-3-yl)methyl]-1-(cyclopropanecarbonyl)-4-fluoropyrrolidin-3-yl]ethanesulfonamide] | 94
15 | Cc1cccc(-c2cccc(C[C@H]3[C@@H](NS(=O)(=O)C4CC4)C(F)(F)CN3C(=O)N(C)C)c2F)c1F [Example 521, (2S,3R)-3-[(cyclopropanesulfonyl)amino]-2-[(2,2′-difluoro-3′-methyl[1,1′-biphenyl]-3 yl)methyl]-4,4-difluoro-N,N-dimethylpyrrolidine-1-carboxamide] | 97
16 | Cc1cc(F)cc(-c2cccc(C[C@H]3[C@@H](NS(=O)(=O)C4CC4)C(F)(F)CN3C(=O)N(C)C)c2F)c1 [Example 522, (2S,3R)-3-[(cyclopropanesulfonyl)amino]-2-[(2,3′-difluoro-5′-methyl[1,1′-biphenyl]-3-yl)methyl]-4,4-difluoro-N,N-dimethylpyrrolidine-1-carboxamide] | 97
17 | CN(C)C(=O)N1CC(F)(F)[C@H](NS(=O)(=O)C2CC2)[C@@H]1Cc1cccc(-c2cccc(F)c2)c1F [Example 523, (2S,3R)-3-[(cyclopropanesulfonyl)amino]-2-[(2,3′-difluoro[1,1′-biphenyl]-3-yl)methyl]-4,4-difluoro-N,N-dimethylpyrrolidine-1-carboxamide] | 86
18 | CN(C)C(=O)N1CC(F)(F)[C@H](NS(=O)(=O)C2CC2)[C@@H]1Cc1cccc(-c2cc(F)cc(F)c2)c1F [Example 524, (2S,3R)-3-[(cyclopropanesulfonyl)amino]-4,4-difluoro-N,N-dimethyl-2-[(2,3′,5′-trifluoro[1,1′-biphenyl]-3-yl)methyl]pyrrolidine-1-carboxamide] | 87
19 | O=C(N1CCC1)N1CC(F)(F)[C@H](NS(=O)(=O)C2CC2)[C@@H]1Cc1cccc(-c2cc(F)cc(F)c2)c1F [Example 525, N-{(2S,3R)-1-(azetidine-1-carbonyl)-4,4-difluoro-2-[(2,3′,5′-trifluoro[1,1′-biphenyl]-3-yl)methyl]pyrrolidin-3-yl]cyclopropanesulfonamide] | 85
20 | Cc1cc(F)cc(-c2cccc(C[C@H]3[C@@H](NS(=O)(=O)N(C)C)C(F)(F)CN3C(=O)N(C)C)c2F)c1 [Example 526, (2S,3R)-2-[(2,3′-difluoro-5′-methyl[1,1′-biphenyl]-3-yl)methyl]-3-[(dimethyslulfamoyl)amino]-4,4-difluoro-N,N-dimethylpyrrolidine-1-carboxamide] | 83
21 | Cc1cccc(-c2cccc(C[C@H]3[C@@H](NS(=O)(=O)C4CC4)C(F)(F)CN3C(=O)N3CCC3)c2F)c1F [Example 527, N-{(2S,3R)-1-(azetidine-1-carbonyl)-2-[(2,2′-difluoro-3′-methyl[1,1′-biphenyl]-3-yl)methyl]-4,4-difluoropyrrolidin-3-yl}cyclopropanesulfonamide] | 95
22 | CN(C)C(=O)N1CC(F)(F)[C@H](NS(=O)(=O)N(C)C)[C@@H]1Cc1cccc(-c2cccc(F)c2)c1F [Example 528, (2S,3R)-2-[(2,3′-difluoro[1,1′-biphenyl]-3-yl)methyl]-3-[(dimethylsulfamoyl)amino]-4,4-difluoro-N,N-dimethylpyrrolidine-1-carboxamide] | 83
23 | Cc1cc(F)cc(-c2cccc(C[C@H]3[C@@H](NS(=O)(=O)C4CC4)C(F)(F)CN3C(=O)N3CCC3)c2F)c1 [Example 529, N-{(2S,3R)-1-(azetidine-1-carbonyl)-2-[(2,3′-difluroo-5′-methyl[1,1′-biphenyl]-3-yl)methyl]-4,4-difluoropyrrolidin-3-yl}cyclopropanesulfonamide] | 95
24 | Cc1cccc(-c2cccc(C[C@H]3[C@@H](NS(=O)(=O)C4CC4)C(F)(F)CN3C(=O)[C@H]3CCO3)c2F)c1F [Example 530, N-{(2S,3R)-2-[(2,2′-difluoro-3′-methyl[1,1′-biphenyl]-3-yl)methyl]-4,4-difluoro-1-[(2R)-oxetane-2-carbonyl]pyrrolidin-3-yl}cyclopropanesulfonamide] | 94
